# In US20260242390A1, “TOTAL SYNTHESES OF PORTIMINE A AND ANALOGUES THEREOF AS SMALL MOLECULE MODULATORS OF NMD3” (priority 2023, published 2026):
# pIC50: −log10 of the molar value.
# Key:
# NMD3 mRNA = NMD3 mRNA level in cells; assay type: cell-based, human
# Protocol: FIG. 6. Portimine A inhibits S phase entry in Jurkat cells. Portimine A downregulates NMD3 at protein level but upregulates in mRNA level in cells, as well as some essential apoptosis proteins. […] Protein degradation of p53, Mcl1, Bid, Bim, Noxa can be rescued by MG132 or Epoxomicin. (B) NMD3 mRNA increased after PA treatment, but not ePA control compound. Jurkat cells were treated with indicated compounds for 24 hr; Cells were then fixed and perform Propidium Iodide staining.
# • 1) Portimine A and its functional analogs show stereo-selective acute toxicity in cancer cells (FIG. 1). […] (B) Structure of portimine related analogs: phenyl-portimine A (Ph-PA, 36) and epi-portimine A (ePA, 38). Structure of fully functionalized portimine A-based epimeric probe pair: portimine A-diazirine-alkyne (PA-DA, 35-2) and epi-portimine A-diazirine-alkyne (ePA-DA, 35-1). (C) Cell viability analysis of portimine A and analogs. Jurkat cells were treated with increasing concentrations of portimine A and analogs for 24 hours. All presented data as mean of biological replicated experiments (n=3). […] Jurkat cells were treated with portimine A or analogs for 12 hours at 10 nM. […] Cell lysates were fractionated by sucrose gradient (5-50%) and each fraction were analyzed by western blot. eIF6 levels increase in 60S subunit fraction and decrease in ribosome-free fractions after PA treatment. […]
# GBM-A = assay: Broad cell line profiling, GBM-A; assay type: cell-based; conditions: Homo sapiens, Glioblastoma Cancer Stem Cell, read-out: PA IC50
# From the text: (§1) • A panel of human and mouse cancer cell types used to assess the breadth of PA activity, including multiple therapy resistant metastatic mesenchymal tumor cell lines and primary glioblastoma patient-derived metastatic stem/tumor initiating cell populations.
# MD-MBA-231 = assay: Broad cell line profiling, MD-MBA-231; assay type: cell-based; conditions: Homo sapiens; MD-MBA-231, TNBC Breast Adenocarcinoma; read-out: PA IC50
# From the text: as §1
# RD = assay: Broad cell line profiling, RD; assay type: cell-based; conditions: Human Rhabdomyosarcoma, read-out: PA IC50
# From the text: as §1
# 4T1 = assay: Broad cell line profiling, 4T1; assay type: cell-based; conditions: 4T1, Mouse Mammary Carcinoma; read-out: PA IC50
# From the text: as §1
# MCF-7 = assay: Broad cell line profiling, MCF-7; assay type: cell-based; conditions: Homo sapiens, MCF7; MCF-7, Breast Adenocarcinoma; read-out: PA IC50
# From the text: as §1
smiles,measurement,setting,value
"C=CC1=C[C@@H]2[C@@H]3O[C@]4(CC[C@H](O4)C(C)C[C@@H](O)C3=O)CC(O)C3=NCC[C@@]32CC1 (stereo partly drawn) [PA, portimine A]",NMD3 mRNA,NMD3 mRNA,increased
same,pIC50,GBM-A,8.59
same,pIC50,MD-MBA-231,9.17
same,pIC50,RD,9.25
same,pIC50,4T1,9.20
same,pIC50,MCF-7,9.11
